Data set [1] can be described thus: in vitro. The class given is cell-based, human. The protocol: (§1) The peptide cytotoxicity against human cells was evaluated using CCD-34Lu-lung fibroblasts and A549-lung adenocarcinoma cells. Moreover, 6 × 10^3 cells in DMEM medium added with 10% FBS were seeded in 96-well sterile plates. After 24 h, cells were incubated with increasing concentrations of peptide (final concentrations of 5, 10, 25, 50, and 100 µM, with an additional concentration of 200 µM in CCD-34Lu) for 24 h at 37 °C (three replicates per condition). Cell viability was measured by removing the exhausted medium, adding 100 µL of DMEM and 20 µL of the MTS solution (Promega). Plates were incubated at 37 °C for 20 min until the complete conversion of the compound. The absorbance was measured at 492 nm using a microplate reader. Cell viability was calculated using the formula: Viability (%)=ODCecB−OD0/ODCtrl−OD0×100, where ODCecB is the OD in the presence of the peptide, ODCtrl is the OD of cells without the peptide, and OD0 is the background absorbance (wells with only medium and MTS compound). The experiment was performed at least twice.

Data set [2] concerns A549 lung adenocarcinoma cells. As to the kind of experiment: in vitro. In kind it is cell-based, human. The protocol:
as §1

Data set [3] deals with CCD-34Lu lung fibroblasts. As to the kind of experiment: in vitro. In kind it is cell-based, human. The protocol: as §1
Data set [4] deals with P. aeruginosa ATCC 25668, ATCC 27853, and PAO1-L strains. As to the kind of experiment: microbe, parasite or virus in culture. The class given is cell-based, Pseudomonas aeruginosa. The note with it: LB medium, 24 h, 37 °C, OD600; same value for all three strains; triplicate, at least three experiments. On the procedure:
(§2) The following strains were used: P. aeruginosa ATCC 27853, ATCC 25668, and PAO1-L (Lausanne subline). All strains were grown at 37 °C in Luria Bertani (LB) medium or in Luria Bertani Agar (LBA) plates.
(§3) The antibacterial activities of L- and D-Q53 CecB were evaluated by determining (i) the MIC and (ii) the MBC. Tobramycin (Merck) was used as an antibiotic control. (i) An overnight (ON) bacterial culture was diluted to 1 × 10^6 cells/mL in LB medium. 50 µL/well were seeded in sterile polypropylene 96-well plates (Corning, Corning, NY, USA) and added with 50 µL LB medium, containing serial dilutions of each compound (final concentrations of L- and D-Q53 CecB peptides from 1.1 to 35.2 µM; final concentrations of tobramycin from 0.26 to 17 μM; each condition in triplicate). Microbial suspensions in the growing medium (positive control) and wells with only the medium (negative controls) were processed in parallel. Plates were incubated 24 h at 37 °C with agitation (300 rpm), and the absorbance was measured at 600 nm in a microplate reader. The MIC was considered as the lowest concentration determining a delta optical density at 600 nm (ΔOD600) equal to 0 ± 0.05. The ΔOD600 was determined by subtracting the OD600 recorded at time 0 from that obtained after 24 h. Each experiment was performed at least three times. […] For each sample, 100 μL of 1:10, 1:100, and 1:1000 dilutions were plated on LBA plates, and colonies were counted after 24 h at 37 °C. […] Each experiment was performed at least twice.

Data set [5] deals with P. aeruginosa PAO1-L strain. The data set is described as follows: microbe, parasite or virus in culture. The note with it: value between parentheses, 24 h, 37 °C, plating on LBA. In kind it is cell-based, Pseudomonas aeruginosa. On the procedure:
as §2, §3

Like-named read-outs stand apart in the source and are kept apart here. Non-standard residues stand in square brackets, D forms with d. Residues, ends and D or L forms follow the SMILES beside them. No end group written: not given here.

Broadly, the IC50 is the concentration at which inhibition is half-maximal. Low values mean higher potency, high ones lower potency. The cell viability is a per cent measure of how many cells are alive, often set against a control. A low value points to more harm to the cells. With `CC[C@@H](C)[C@@H](NC(=O)[C@@H](C)NC(=O)[C@@H](CCCCN)NC(=O)[C@@H](C)NC(=O)[C@@H](CO)NC(=O)CNC(=O)[C@@H](CC(C)C)NC(=O)[C@H](NC(=O)[C@@H](CCC(N)=O)NC(=O)[C@H](NC(=O)[C@@H](C)NC(=O)[C@H]1CCCN1C(=O)CNC(=O)[C@@H](C)NC(=O)[C@@H](CCCCN)NC(=O)[C@H](NC(=O)[C@H](NC(=O)CNC(=O)[C@@H](CC(=O)O)NC(=O)[C@@H](CCCNC(=N)N)NC(=O)[C@H](NC(=O)[C@@H](CC(N)=O)NC(=O)[C@@H](CCCNC(=N)N)NC(=O)CNC(=O)[C@@H](CCSC)NC(=O)[C@@H](CCCCN)NC(=O)[C@@H](CCC(=O)O)NC(=O)[C@H](NC(=O)[C@@H](CCCCN)NC(=O)[C@@H](CCCCN)NC(=O)[C@@H](Cc1ccccc1)NC(=O)[C@H](NC(=O)[C@@H](CCCCN)NC(=O)[C@@H](Cc1c[nH]c2ccccc12)NC(=O)[C@H](N)CCCNC(=N)N)[C@H](C)CC)[C@H](C)CC)[C@H](C)CC)[C@H](C)CC)C(C)C)[C@H](C)CC)C(C)C)C(N)=O` [D-Q53 CecB] (H-[dR][dW][dK][dI][dF][dK][dK][dI][dE][dK][dM]G[dR][dN][dI][dR][dD]G[dI][dV][dK][dA]G[dP][dA][dI][dQ][dV][dL]G[dS][dA][dK][dA][dI]-NH2; N-terminus and C-terminus assumed), the IC50 at 24 h is 72.6 ± 2.81 µM in data set [1] and 68 ± 3.71 µM in data set [1] (human). Besides, the cell viability is ~ 79% in data set [2] (50 µM); roughly 15% in data set [2] (100 µM); ~ 85% in data set [3] (50 µM); roughly 27% in data set [3] (100 µM); roughly 4.5% in data set [3] (200 µM).
In data set [4], “RWKIFKKIEKMGRNIRDGIVKAGPAIQVLGSAKAI-NH2 [L-Q53 CecB]” registered an MIC of 2.20 µM. Also, the MBC in data set [5] is recorded as 4.40 µM.

For the origin of these results see paper PMC10419416, “Fighting Pseudomonas aeruginosa Infections: Antibacterial and Antibiofilm Activity of D-Q53 CecB, a Synthetic Analog of a Silkworm Natural Cecropin B Variant” (International Journal of Molecular Sciences, 2023).
